Measured values reported in US20220175787A1, “PATIENT SELECTION FOR ENHANCEMENT OF ANTI-TUMOR IMMUNITY IN CANCER PATIENTS” (G1 Therapeutics Inc., priority 2019, published 2022).

Columns and labels:
[1] = system: T-cell clones (T-cell receptor β sequences); assay: Phase 2 NCT03041311 (E/P/A with or without trilaciclib): TCRB differential abundance analysis in whole blood; format: in vivo, human; details: for T-cell clonal expansion in responders: trilaciclib responders vs placebo responders and vs trilaciclib non-responders (FIG. 12)
Experimental: (§1) A phase 2 study of carboplatin, etoposide, and atezolizumab with or without trilaciclib in patients with untreated extensive stage small cell lung cancer was initiated (Clinicaltrials.gov identifier NCT03041311). […] a 21-day induction phase and a 21-day maintenance phase. Four induction phase cycles were completed prior to the initiation of the maintenance phase cycle.
In the induction phase, patients received trilaciclib (240 mg/m2 diluted in 250 mL D5W or sodium chloride solution 0.9%) or placebo (250 mL of D5W or sodium chloride solution 0.9%) administered IV once daily on days 1 to 3 of a 21-day cycle of each etoposide/carboplatin/atezolizumab (E/P/A) therapy cycle (up to 4 cycles in total). […] Atezolizumab (1200 mg) in 250 mL sodium chloride solution 0.9% was administered as an IV infusion on day 1 of each 21-day cycle in both the induction and maintenance phases. Atezolizumab was infused over 60 minutes for the first administration and, if tolerated, all subsequent infusions were delivered over 30 minutes. Atezolizumab was administered following the completion of administration of Compound I or placebo, etoposide, and carboplatin.
Analysis of the TCRB locus in blood samples was performed to identify biomarkers of immune response and immunomodulatory activity between the trilaciclib arm and the placebo arm. All samples were sequenced using a 1-rxn TCRB Assay. The number of expanded T-cell clones was determined by the differential abundance analysis of T-cell receptor β sequences in whole blood from patients at after induction and prior to starting maintenance versus baseline.

CD8+ T cells = format: cell-based, human; details: mTNBC patients
[2] = system: extensive stage small cell lung cancer; assay: Phase 2 NCT03041311: overall survival by newly expanded clone fraction; format: in vivo, human; details: SCLC patients on E/P/A above the newly expanded clone fraction median; p=0.04
Experimental: as §1
. […] Atezolizumab (1200 mg) in 250 mL sodium chloride solution 0.9% was administered as an IV infusion on day 1 of each 21-day cycle in both the induction and maintenance phases. Atezolizumab was infused over 60 minutes for the first administration and, if tolerated, all subsequent infusions were delivered over 30 minutes. Atezolizumab was administered following the completion of administration of Compound I or placebo, etoposide, and carboplatin.

[3] = system: PD-L1 positive or negative TNBC tumors; assay: G1T28-04 overall survival by PD-L1 tumor status (Ventana SP142); format: in vivo, human; details: p=0.005
Experimental: Patient tumors from the G1T28-04 clinical trial described in Example 1 were characterized based on PD-L1 expression scored as negative or positive if <1% or ≥1% of the total tumor area contained PD-L1-labelled immune cells, respectively, using the Ventana SP142 assay. Association of PD-L1 expression with antitumor efficacy was assessed using proportional hazards regression. The groups are divided as follows: Group 1 (gemcitabine+carboplatin only on days 1 and 8 in a 21-day cycles), Group 2 (gemcitabine+carboplatin+trilaciclib on days 1 and 8 in a 21 day cycle), and Group 3 (gemcitabine+carboplatin on days 2 and 9+trilaciclib on days 1, 2, 8, and 9 in a 21-day cycle).

[4] = system: TNBC with high or low Ayers immune signature score; assay: G1T28-04 survival by Ayers IFN-γ Signature / Expanded Immune Signature score; format: in vivo, human; details: Groups 2+3 (Group 4) vs Group 1
Experimental: Tumor samples from patients participating in the clinical trial described in Example 1 where assayed by Q^2 Solutions (Morrisville, N.C.) to determine their Ayers Immune Scores according to Ayers et al., IFN-γ-related mRNA Profile Predicts Clinical Response to PD-1 Blockade, J Clin Invest. 2017127(8)2930-2940. The data was processed using RNA Access, and FPKM normalization prior to log 10 transformation and averaging was performed.
89 samples were analyzed. The calculated signature score for both the IFN-γ Signature and Expanded Immune Signature were unimodel in distribution, and the median score was used to define the “High” and “Low” categories.
Survival and response rates between treatment groups within pre-defined immune response groups were determined using a series of pair-wise, two-group tests based on the data derived in the G1T28-04 clinical trial described in Example 1. Additionally, examination of differences in survival and response rates between different immune response categories within a single treatment group were analyzed.
Kaplan-Meier curves were generated to visualize the overall survival and progression free survival among groups (see FIGS. 8C-8F and 9A-9D). […]

[5] = system: TNBC tumors categorized as CDK4/6 independent, dependent or indeterminate; assay: G1T28-04 subgroup analysis by CDK4/6 dependency signature (PAM50, Lehmann)
Excerpt: Using two established signatures (Prosigna Breast Cancer Prognostic Gene Signature Assay [PAM50] and Lehmann triple-negative breast cancer type 1-4), patient tumors were characterized as CDK4/6 independent, dependent, or indeterminate. […] Because their reliance on the CDK4/6 pathway for proliferation is either unknown or heterogeneous, the remaining PAM50 signature groups (including HER2, normal-like, luminal A, and luminal B) are categorized as CDK4/6 indeterminate.
To address the theoretical risk that trilaciclib could decrease antitumor activity in patients with CDK4/6 dependent tumors by arresting CDK4/6-dependent tumor cells during chemotherapy, an additional prespecified subgroup analysis of the antitumor activity endpoints (objective response, progression-free survival, and overall survival) using two established signatures (PAM50 and Lehmann triple-negative breast cancer type 1-4) was performed to characterize patient tumors as CDK4/6 independent, dependent, or indeterminate.

[6] = system: TNBC classified C2 IFN-γ Dominant or not; assay: G1T28-04 survival by Thorsson Six Class Immune Signature; format: in vivo, human; details: TNBC classified as C2 IFN-γ Dominant; Groups 2+3 (Group 4) vs Group 1; p=0.036
Excerpt: Tumor samples from patients participating in the clinical trial (Clinical trials.gov identifier NCT02978716) described in Example 1 where assayed by Q^2 Solutions (Morrisville, N.C.) to determine their Six Class Immune Classification as described in Thorsson V, et al. “The Immune Landscape of Cancer.” Immunity, […], 2018, pp. 812-830. doi: 10.1016/j.immuni.2018.03.023 (incorporated herein by reference in its entirety).
Briefly, a six-step procedure was implemented to apply the Thorsson et al. classification to 89 pre-treatment triple negative breast cancer samples secured in the clinical trial described in Example 1. Following RNAseq data procurement, the data was cleaned and homogenized by reconciling gene and sample names across data sources. […] In short, samples in the resulting TCGA expression data were randomly down-sampled to more closely reflect the abundance of PAM50 classes within the clinical trial data (previously derived, see Example 1, Table 7). […]
Survival and response rates between treatment groups within pre-defined immune response groups were determined using a series of pair-wise, two-group tests based on the data derived in the G1T28-04 clinical trial described in Example 1. Additionally, examination of differences in survival and response rates between different immune response categories within a single treatment group were analyzed. […]

CN1CCN(c2ccc(Nc3ncc4cc5n(c4n3)C3(CCCCC3)CNC5=O)nc2)CC1 [trilaciclib, 2′-((5-(4-methylpiperazin-1-yl)pyridin-2-yl)amino)-7′, 8′-dihydro-6′H-spiro(cyclohexane-1,9′-pyrazino(1′,2′:1,5)pyrrolo(2,3-d)pyrimidin)-6′-one]
Number of expanded T-cell clones ([1]; SCLC patients on E/P/A, trilaciclib vs E/P/A only, after induction vs baseline, P=0.01, FIG. 11): significantly higher
Number of newly expanded T-cell clones in responders ([1]; SCLC, E/P/A, responders receiving trilaciclib vs without, p=0.001, FIG. 13): more newly expanded clones
Fraction of newly expanded clones versus all expanded clones in responders ([1]; SCLC, E/P/A, responders receiving trilaciclib vs without, p=0.001, FIG. 14): significantly increased
T-cell clonal expansion in responders ([1]; SCLC, E/P/A): more T-cell clonal expansion
T-cell clonal expansion in responders ([1]; SCLC, E/P/A, listed as Trilaciclib): more clonal expansion
Lymphocyte counts and T-cell activation (CD8+ T cells; addition of trilaciclib to gemcitabine and carboplatin): did not preserve lymphocyte counts or enhance T-cell activation
Frequency of CD8+ T cells producing IFN-γ after ex-vivo stimulation (CD8+ T cells; GC plus trilaciclib vs group 1 (FIG. 5)): higher frequency
OS HR (trilaciclib versus placebo) [2]: 0.34
Overall survival compared with patients who did not receive trilaciclib [3]: statistically significant overall survival
Overall survival compared with Group 1 (not receiving trilaciclib) ([4]; TNBC with high Ayers Expanded Immune Signature score): significantly improved overall survival
Overall survival compared with Group 1 (not receiving trilaciclib) ([4]; TNBC with high Ayers IFN-γ Signature score, p=0.0194): significantly improved overall survival
Effect of including trilaciclib on chemotherapy efficacy ([5]; TNBC with variable or CDK4/6 dependent tumor (PAM50 Other or Lehmann LAR)): did not antagonize chemotherapy efficacy
Effect of including trilaciclib on chemotherapy efficacy ([5]; TNBC with variable or CDK4/6 independent tumor (PAM50 Basal-Like or Lehmann Other)): did not antagonize chemotherapy efficacy
Overall survival compared with Group 1 (not receiving trilaciclib) [6]: significantly improved overall survival
